These results are taken from patent US5807827A, “Des-Tyr dynorphin analogues” (Des-Tyr Dynorphin Partnership, priority 1997, dated 1998).

Ends that are not written are not given here.

Data set [1] relates to morphine tolerant (that is, addicted) mice. As to the kind of experiment: Tail-flick antinociceptive activity of morphine in morphine tolerant animals. The data set is classed as in vivo. The settings on record: control 2: addicted animals, no peptide. Here is the method: (§1) Analgesia was measured by the tail-flick method of D'Amour and Smith, J. Pharmac. Exp. Ther. , 72, pp. 74-79 (1941), incorporated herein by reference, as modified by Tulunay and Takemori, J. Pharmac. Exp. Ther., 190, pp. 395-400 (1974), incorporated herein by reference. For ED50 (e.g., effective does for 50% of the test group) determinations, the animals' responses were made quantal by establishing an endpoint which represented a significant increase in reaction time. The endpoint was an increase in reaction time of an individual animal of greater than 3 SD (e.g., standard deviation) of the control mean reaction time for all animals used in the assay. The usual control mean reaction time was 3.1±0.05 sec. Nonresponding animals were removed from the heat stimulus when reaction time exceeded 10 sec. to avoid tail damage.
(§2) Drugs were injected 30 minutes prior to testing, unless otherwise indicated. Morphine was injected subcutaneously (s.c.) whereas the peptides were injected (i.v.) in […] saline.
(§3) Morphine tolerance was established by implanting morphine pellets, 75 mg base, subcutaneously by the method of Way et al., J. Pharmac. Exp. Ther., 167, pp. 1-8 (1969), incorporated herein by reference. The drug used was morphine sulfate (Mallinckrodt Chemical Works, St. Louis, Mo.). […]

The subject of data set [2] is naive, unaddicted (that is, normal) animals. The data set is described as follows: Tail-flick antinociceptive activity of morphine in naive animals. The format is in vivo, mice. To be noted: control 1: naive, no peptide. Here is the method: as §1, §2, §3
Data set [3] relates to morphine tolerant (addicted) animals. As to the kind of experiment: Naloxone-precipitated narcotic withdrawal (withdrawal jumping) in morphine pellet-implanted animals. The format is in vivo, mice. Here is the method:
Morphine tolerance was established by implanting morphine pellets, 75 mg base, subcutaneously by the method of Way et al., J. Pharmac. Exp. Ther., 167, pp. 1-8 (1969), incorporated herein by reference. The drug used was morphine sulfate (Mallinckrodt Chemical Works, St. Louis, Mo.). The ED50 values, their 95% confidence limits and significance of the potency ratio between two ED50. values were determined by the method of Litchfield and Wilcoxon, J. Pharmac. Exp. Ther., 96, 99-113 (1949), incorporated herein by reference.
The morphine tolerant (addicted) animals had pellets implanted for three days. The animals were then challenged with naloxone doses (while the morphine pellet remained in place). […] Table 1 summarizes the data for the control animals and for groups of animals treated with three different peptides. Each peptide was in a dose of 5 μmol/kg i.v. before administration of the naloxone.
However, when any of the three peptides shown in Table 1 was administered five minutes before administration of the naloxone, then much more naloxone was needed to precipitate the animal into a state of narcotic withdrawal. This means that each of the three peptides shown in Table 1 caused the addicted animal to be not as dependent on morphine as it would be without such pretreatment.
The animals and test procedures used were analogous to those described in Example 1. […]

For the next data set, the system named is opioid receptor. To be noted: cited from earlier work.
The subject of data set [4] is macrophage-colony stimulating factor. To be noted: mice treated with chronic morphine; cited from earlier work.
For data set [5], the system named is hosts tolerant to narcotic analgesic. The settings on record: cited from earlier work.

On to `CN1CC[C@]23c4c5ccc(O)c4O[C@H]2[C@@H](O)C=C[C@H]3[C@H]1C5` [Morphine, morphine], for which the “Tolerance Index” value in data set [1] (relative to naive control) is reported as 8.5 (5.7-12.--). Also, the figures for the “Morphine ED50” value in data set [1] (tail flick) and in data set [2] were 55.6 (42.6-73.5) μmol/kg s.c and 6.5 (5.0-8.9) μmol/kg s.c, respectively.

Usually ED50 stands for the dose that gives a 50% effect, or the effect in half of the subjects. The low end stands for an effect at a small dose, the high end for a need for a large dose. On to `C=CCN1CC[C@]23c4c5ccc(O)c4O[C@H]2C(=O)CC[C@@]3(O)[C@H]1C5` [Naloxone, naloxone], for which the ED50 in data set [3] (Mus musculus, control addicted animals, no peptide (base line)) was 79 µmol/kg.

For “GFLRRIRPKLK [Dyn (3-13), Gly-Phe-Leu-Arg-Arg-Ile-Arg-Pro-Lys-Leu-Lys]”, in data set [3] (Example 3), the “Observed behaviour of treated animals” value was “lethargic and exhibited partial paralysis of their hind quarters”.

For “Gly-Gly-Phe-Leu-Arg-Arg-Ile-Arg-Pro-Lys-Leu-Lys [des-Tyr Dyn A (1-13)]”, the “Competition in assays with various ligands” value in the data set on opioid receptor was “did not compete at all”.

Turning to “Tyr-Gly-Gly-Phe-Leu-Arg-Arg-Ile-Arg-Pro (YGGFLRRIRP-NH2) [SEQ ID NO:3]”, the “Block of opioid inhibition of macrophage-colony stimulating factor” value in data set [4] is given as “block the opioid inhibition of macrophage-colony stimulating factor of morphine in a dose-dependent manner”.

On to “Tyr-Gly-Gly-Phe-Leu-Arg-Arg-Ile-Arg-Pro-Lys-Leu-Lys (YGGFLRRIRPKLK) [SEQ ID NO:2]”, for which, in data set [5], the “Effect on analgesic effect of narcotic analgesic” value is listed as “potentiates the analgesic effect in tolerant hosts”. Besides, in data set [4], the “Block of opioid inhibition of macrophage-colony stimulating factor” value is “block the opioid inhibition of macrophage-colony stimulating factor of morphine in a dose-dependent manner”.
